# Test results published in US8957049B2, “Inhibitors of fatty acid amide hydrolase” (Infinity Pharmaceuticals, Inc., priority 2008, dated 2015).
# pKi: −log10 of the molar value.
# Molecular target: T1, human FAAH (Homo sapiens, UniProt O00519)
# T1 construct: host or cells: COS-7 cells, transient transfection (FuGENE 6); 13,000 g membrane fraction solubilised in 1% Triton X-100
# T1 sequence (O00519 1-579): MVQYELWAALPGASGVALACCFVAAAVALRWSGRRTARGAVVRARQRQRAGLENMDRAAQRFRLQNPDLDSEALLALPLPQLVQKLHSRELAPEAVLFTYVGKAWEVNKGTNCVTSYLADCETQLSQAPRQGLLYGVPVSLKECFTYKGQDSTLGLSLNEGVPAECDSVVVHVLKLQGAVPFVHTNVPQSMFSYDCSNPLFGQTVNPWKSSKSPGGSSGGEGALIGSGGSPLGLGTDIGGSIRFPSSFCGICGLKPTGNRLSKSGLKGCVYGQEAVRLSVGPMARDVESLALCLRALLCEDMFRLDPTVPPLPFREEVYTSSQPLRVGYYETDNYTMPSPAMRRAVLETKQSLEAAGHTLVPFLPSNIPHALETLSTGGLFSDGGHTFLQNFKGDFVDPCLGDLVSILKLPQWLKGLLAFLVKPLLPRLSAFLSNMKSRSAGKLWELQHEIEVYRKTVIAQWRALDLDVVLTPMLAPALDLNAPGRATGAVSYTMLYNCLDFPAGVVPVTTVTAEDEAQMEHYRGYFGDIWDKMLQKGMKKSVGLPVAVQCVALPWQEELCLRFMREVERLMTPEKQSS
# Experiment: Human FAAH biochemical inhibition assay (AMC arachidonoyl amide fluorescence)
# Conditions: class given in each Example, read-out: Activity (Ki, inhibition of human FAAH)
# Method: Exemplary compounds are set forth in the Examples provided below. Compounds were assayed as inhibitors of human FAAH using the method described in detail in Example 286.
# The following assays may be used to determine the inhibition of FAAH by the compounds of the present invention: (1) a fluorescence-based assay for fatty acid amide hydrolase compatible with high-throughput screening as described in Manjunath et al., Analytical Biochemistry (2005) 343:143-151; and (2) a high-throughput screening for the discovery of inhibitors of fatty acid amide hydrolase using a microsome-based fluorescent assay. Wang et al., Biomolecular Screening (2006) 1-9.
# COS-7 cells were split the day before, 1:5 into 150 mm×25 mm cell culture dishes (Corning Inc., Cat. No. 430599). Transient transfection took place at 30-40% confluency according to FuGENE 6 Transfection Reagent (Roche, Cat. No. 11814 443 001).
# The FuGENE transfection 6 reagent (45 uL) was added to 1410 μL of media (DMEM, serum free without pen/strep) in a 15 mL conical tube and incubated at room temp for 5 minutes, followed by the addition of FAAH plasmid DNA (15 μg) (OriGene Cat. No. TC119221, Genbank Accession No. NM_001441.1, 0.67 ug/uL) and a further incubation of 15 minutes at room temperature. The resulting solution was added into one dish of 30-40% confluent COS-7 cells in a drop-wise manner. The COS-7 cell dish was subsequently incubated for 48 hours. The cells are then harvested.
# Media was aspirated from the dishes and the cells rinsed with 10 mL PBS. The PBS was removed and 3 mL of PBS added to the dish. The dish was scraped to resuspend the cells, and the subsequent cell suspension collected into a 15 mL conical tube. The cells were pelleted by centrifugation at 1200 rpm for 5 minutes in a bench top centrifuge. PBS was removed and the cell pellet snap frozen in liquid nitrogen and stored at −80° C.
# COS-7 Cells—FAAH Purification: • (1) Fractionation: Frozen cell pellets from transient transfections were thawed on ice and resuspended in 12.5 mM Hepes pH 8.0, 100 mM NaCl, 1 mM EDTA (10 mL/0.2 g cell pellet). The pellets were dounce homogenized and then sonicated to produce cell extract. The cell extract was subsequently centrifuged at 1000 g to remove cellular debris. The pellet was discarded and the supernatant centrifuged at 13,000 g for 20 minutes. The pellet contained membrane bound FAAH. The supernatant was discarded and the pellet resolubilized. • (2) Re-solubilization: The fraction of interest, (13,000 g, membrane fraction) was re-suspended in 2.3 mL re-suspension buffer (20 mM Hepes pH 7.8, 10% v/v Glycerol, 1 mM EDTA, 1% Triton X-100) and the sample incubated on ice for 1 hour and then centrifuged to remove any particulate matter. The supernatant containing solubilized human FAAH was aliquoted and snap frozen in liquid nitrogen and stored at −80° C. until use. • (3) Characterization: Protein Concentration determined by Bradford assay. • SDS gel and Western blot to confirm presence of FAAH • FAAH activity assay • Km determination—96-well assay • Linear dependence—96-well assay • Standard compound Ki determination—384-well assay
# Rat FAAH biochemical assays were carried out in a 96 well flat bottom black non-treated polystyrene plates (Corning Costar Catalogue #3915). FAAH reaction buffer: 50 mM Hepes (pH 7.5), 1 mM EDTA, 0.2% Triton X-100. FAAH substrate—AMC Arachidonoyl Amide (Cayman Chemicals Company, Catalog #10005098). The reaction was read in an Envision microtiter plate reader [Excitation filter 355 nm (40 nm bandpass); Emmision filter 460 nm (25 nm bandpass)]. The raw fluorescence was plotted on the y axis and the inhibitor concentration on the x axis to give a dose response inhibition curve. The data was fitted to a single site competitive inhibition equation, fixing the Km for the rat and human enzyme to 12 μM and 9 μM respectively. […]
row,pKi,Compound
1,6.00 to 7.00,OB(O)c1cccc(-c2nnc(-c3ccccc3)o2)c1 [Compound 63]
2,7.00 to 8.00,OB(O)c1ccc(Cc2nnc(-c3ccccc3)o2)cc1 [Compound 64]
3,7.00 to 8.00,OB(O)c1ccc(-c2nnc(-c3ccccn3)o2)cc1 [Compound 65]
4,≥ 8.00,COc1cccc(-c2nnc(-c3ccc(B(O)O)cc3)o2)c1 [Compound 66]
5,7.00 to 8.00,OB(O)c1ccc(-c2nnc(-c3ccccc3)o2)c(F)c1 [Compound 67]
6,≥ 8.00,OB(O)c1ccc(-c2nnc(-c3ccccc3)o2)c(Cl)c1 [Compound 68]
7,7.00 to 8.00,OB(O)c1ccc(-c2nnc(Cc3ccccc3)o2)cc1F [Compound 69]
8,≥ 8.00,OB(O)c1ccc(-c2nnc(Cc3ccccc3)o2)cc1 [Compound 70]
9,≥ 8.00,OB(O)c1ccc(-c2nnc(-c3ccccc3)o2)cc1 [Compound 71]
10,< 6.00,CCCc1nnc(-c2ccsc2B(O)O)o1 [Compound 72]
11,7.00 to 8.00,CC(C)(O)c1nnc(-c2ccc(B(O)O)cc2)o1 [Compound 73]
12,7.00 to 8.00,CCOCc1nnc(-c2ccc(B(O)O)cc2)o1 [Compound 74]
13,≥ 8.00,COCc1nnc(-c2ccc(B(O)O)cc2)o1 [Compound 75]
14,≥ 8.00,CCCc1nnc(-c2ccc(B(O)O)c(-c3nnc(CCC)o3)c2)o1 [Compound 76]
15,≥ 8.00,CC(C)(C)c1nnc(-c2ccc(B(O)O)cc2)o1 [Compound 77]
16,≥ 8.00,C=CCCCc1nnc(-c2ccc(B(O)O)cc2)o1 [Compound 78]
17,7.00 to 8.00,OB(O)c1ccc(-c2nnc(-c3ccccc3)o2)cc1F [Compound 79]
18,6.00 to 7.00,OB(O)c1ccc(-c2nnc(-c3ccccc3)o2)c(C(F)(F)F)c1 [Compound 81]
19,7.00 to 8.00,CC(C)(C)OC(=O)NCCc1nnc(-c2ccc(B(O)O)cc2)o1 [Compound 82]
20,7.00 to 8.00,CC(C)(C)OC(=O)NCc1nnc(-c2ccc(B(O)O)cc2)o1 [Compound 83]
21,< 6.00,NCCc1nnc(-c2ccc(B(O)O)cc2)o1 [Compound 84]
22,6.00 to 7.00,CC(=O)NCCc1nnc(-c2ccc(B(O)O)cc2)o1 [Compound 85]

row,pKi,Compound
1,7.00 to 8.00,COC(=O)NCCc1nnc(-c2ccc(B(O)O)cc2)o1 [Compound 86]
2,6.00 to 7.00,Cc1nc2cc(B(O)O)ccc2s1 [Compound 88]
3,< 6.00,COCCCc1cn(-c2ccccc2)nc1-c1ccc(B(O)O)cc1 [Compound 92]
4,7.00 to 8.00,COCc1cc(OCCc2ccccc2)ccc1B(O)O [Compound 95]
5,< 6.00,OCc1cc(OCc2ccccc2)ccc1B(O)O [Compound 96]
6,< 6.00,OB(O)c1ccc(OCCc2ccccc2)cc1COCc1ccccc1 [Compound 97]
7,≥ 8.00,O=Cc1cc(OCCc2ccccc2)ccc1B(O)O [Compound 98]
8,≥ 8.00,COC(=O)/C=C/c1cc(OCCc2ccccc2)ccc1B(O)O [Compound 100]
9,6.00 to 7.00,COC(=O)/C=C/c1ccsc1B(O)O [Compound 101]
10,7.00 to 8.00,COC(=O)CCc1cc(OCCc2ccccc2)ccc1B(O)O [Compound 102]
11,7.00 to 8.00,CN(C)C(=O)/C=C/c1cc(OCCc2ccccc2)ccc1B(O)O [Compound 103]
12,7.00 to 8.00,OB1ON=Cc2cc(OCCc3ccccc3)ccc21 [Compound 104]
13,7.00 to 8.00,OB1ON=Cc2cc(OCc3ccccc3)ccc21 [Compound 105]
14,6.00 to 7.00,[O-]/[N+](=C\c1cc(OCc2ccccc2)ccc1B(O)O)Cc1ccccc1 [Compound 106]
15,< 6.00,OCCN1N=Cc2cc(OCCc3ccccc3)ccc2B1O [Compound 107]
16,< 6.00,CN1N=Cc2cc(OCCc3ccccc3)ccc2B1O [Compound 108]
17,7.00 to 8.00,OB1c2ccc(OCc3ccccc3)cc2C=NN1Cc1ccccc1 [Compound 109]
18,6.00 to 7.00,CN(Cc1ccccc1)Cc1cc(OCc2ccccc2)ccc1B(O)O [Compound 110]
19,6.00 to 7.00,OB(O)c1ccc(OCc2ccccc2)cc1CNCc1ccccc1 [Compound 111]
20,6.00 to 7.00,O=C(/C=C/c1ccccc1B(O)O)NCc1ccccc1 [Compound 112]
21,< 6.00,CC(C)(C)OC(=O)Nc1cccc(NC(=O)/C=C/c2ccccc2B(O)O)c1 [Compound 113]
22,6.00 to 7.00,CN(Cc1ccccc1)C(=O)/C=C/c1ccccc1B(O)O [Compound 114]

row,pKi,Compound
1,7.00 to 8.00,OB(O)c1ccc(OCc2ccccc2)cc1/C=N/OCc1ccccc1 [Compound 115]
2,< 6.00,O=C(CCc1ccccc1)N/N=C/c1ccccc1B(O)O [Compound 116]
3,7.00 to 8.00,CC(C)(C)OC(=O)NCC(=O)N/N=C/c1cc(OCc2ccccc2)ccc1B(O)O [Compound 117]
4,< 6.00,NCC(=O)N/N=C/c1cc(OCc2ccccc2)ccc1B(O)O [Compound 118]
5,≥ 8.00,O=C(CCN1C(=O)C=CC1=O)N/N=C/c1cc(OCCc2ccccc2)ccc1B(O)O [Compound 119]
6,≥ 8.00,CC(=O)N/N=C/c1cc(OCCc2ccccc2)ccc1B(O)O [Compound 120]
7,< 6.00,O=C(Cc1ccccc1)N/N=C/c1ccccc1B(O)O [Compound 121]
8,< 6.00,O=C(Cc1c[nH]c2ccccc12)N/N=C/c1ccccc1B(O)O [Compound 122]
9,< 6.00,Cc1nc(CC(=O)N/N=C/c2ccccc2B(O)O)cs1 [Compound 123]
10,7.00 to 8.00,O=C(Cc1ccccc1)N/N=C/c1cc(OCc2ccccc2)ccc1B(O)O [Compound 124]
11,7.00 to 8.00,O=C(N/N=C/c1cc(OCc2ccccc2)ccc1B(O)O)c1cccnc1 [Compound 125]
12,6.00 to 7.00,OB(O)c1ccc(-c2cn(Cc3ccc(C(F)(F)F)cc3)nn2)cc1 [Compound 127]
13,7.00 to 8.00,COc1cccc(Cn2cc(-c3ccc(B(O)O)cc3)nn2)c1 [Compound 128]
14,≥ 8.00,Cc1cccc(Cn2cc(-c3ccc(B(O)O)cc3)nn2)c1 [Compound 129]
15,7.00 to 8.00,OB(O)c1ccc(-c2cn(-c3ccccc3)nn2)cc1 [Compound 130]
16,7.00 to 8.00,OB(O)c1ccc(-c2cn(-c3ccccc3)nn2)cc1F [Compound 134]
17,7.00 to 8.00,OB(O)c1ccc(-c2cn(Cc3ccccc3)nn2)cc1F [Compound 137]
18,6.00 to 7.00,OB(O)c1ccc(-c2cnnn2Cc2ccccc2)cc1F [Compound 138]
19,7.00 to 8.00,OB(O)c1ccc(-n2cc(-c3ccccc3)nn2)cc1F [Compound 141]
20,6.00 to 7.00,OB(O)c1ccc(-n2nncc2-c2ccccc2)cc1F [Compound 142]
21,≥ 8.00,OB(O)c1ccc(-n2cc(-c3ccccc3)nn2)cc1 [Compound 143]
22,7.00 to 8.00,OB(O)c1ccc(-n2nncc2-c2ccccc2)cc1 [Compound 144]
